According to ChEMBL document CHEMBL5058645, “Data for DCP probe JNJ-6204” (2022):
Calls of active or inactive are those of the source. The calls are words filed in the database; no cut-off is given here.

How the values were obtained:
[1] = target: D(2) dopamine receptor (Homo sapiens) (UniProt P14416); details: Compound concentration 10.0 uM
[2] = target: D(4) dopamine receptor (Homo sapiens) (UniProt P21917); details: Compound concentration 10.0 uM
[3] = target: D(1B) dopamine receptor (Homo sapiens) (UniProt P21918); details: Compound concentration 10.0 uM
[4] = target: Sigma intracellular receptor 2 (Homo sapiens) (UniProt Q5BJF2); details: Compound concentration 10.0 uM
[5] = target: 5-hydroxytryptamine receptor 1D (Homo sapiens) (UniProt P28221); details: Compound concentration 10.0 uM
[6] = target: 5-hydroxytryptamine receptor 7 (Homo sapiens) (UniProt P34969); details: Compound concentration 10.0 uM
[7] = target: D(1A) dopamine receptor (Homo sapiens) (UniProt P21728); details: Compound concentration 10.0 uM
[8] = target: Alpha-2B adrenergic receptor (Homo sapiens) (UniProt P18089); details: Compound concentration 10.0 uM
[9] = target: Histamine H2 receptor (Homo sapiens) (UniProt P25021); details: Compound concentration 10.0 uM
[10] = target: Histamine H1 receptor (Homo sapiens) (UniProt P35367); details: Compound concentration 10.0 uM
[11] = target: Histamine H3 receptor (Homo sapiens) (UniProt Q9Y5N1); details: Compound concentration 10.0 uM
[12] = target: T1, Sodium-dependent dopamine transporter (Homo sapiens, UniProt Q01959); test: GPCRScan assay: inhibition of DAT; design: radioligand conc. used [nm] 3.6 – 16.0, parental cells stable HEK
[13] = target: Muscarinic acetylcholine receptor M3 (Homo sapiens) (UniProt P20309); details: Compound concentration 10.0 uM
[14] = target: Kappa-type opioid receptor (Homo sapiens) (UniProt P41145); details: Compound concentration 10.0 uM
[15] = target: 5-hydroxytryptamine receptor 2B (Homo sapiens) (UniProt P41595); details: Compound concentration 10.0 uM
[16] = target: Histamine H4 receptor (Homo sapiens) (UniProt Q9H3N8); details: Compound concentration 10.0 uM
[17] = target: Alpha-2C adrenergic receptor (Homo sapiens) (UniProt P18825); details: Compound concentration 10.0 uM
[18] = target: Muscarinic acetylcholine receptor M1 (Homo sapiens) (UniProt P11229); details: Compound concentration 10.0 uM
[19] = target: Alpha-2A adrenergic receptor (Homo sapiens) (UniProt P08913); details: Compound concentration 10.0 uM
[20] = target: Alpha-1B adrenergic receptor (Homo sapiens) (UniProt P35368); details: Compound concentration 10.0 uM
[21] = target: Beta-3 adrenergic receptor (Homo sapiens) (UniProt P13945); details: Compound concentration 10.0 uM
[22] = target: 5-hydroxytryptamine receptor 1B (Homo sapiens) (UniProt P28222); details: Compound concentration 10.0 uM
[23] = target: T1, Sodium-dependent dopamine transporter; details: Compound concentration 10.0 uM
D(3) dopamine receptor [24] = target: T2, D(3) dopamine receptor (Homo sapiens, UniProt P35462); test: GPCRScan assay: inhibition of D3; design: radioligand conc. used [nm] 0.5 – 1.8, parental cells HEKT
[25] = target: 5-hydroxytryptamine receptor 1E (Homo sapiens) (UniProt P28566); details: Compound concentration 10.0 uM
[26] = target: Muscarinic acetylcholine receptor M4 (Homo sapiens) (UniProt P08173); details: Compound concentration 10.0 uM
[27] = target: Muscarinic acetylcholine receptor M2 (Homo sapiens) (UniProt P08172); details: Compound concentration 10.0 uM
[28] = target: Sigma non-opioid intracellular receptor 1 (Homo sapiens) (UniProt Q99720); details: Compound concentration 10.0 uM
[29] = target: GABA-A receptor; anion channel (Rattus norvegicus) (UniProt O09028+P15431+P18506+P18508+P19969+P20236+P23574+P23576+P28471+P28473+P30191+P62813+P63079+P63138+Q91ZM7+Q9ES14); details: Compound concentration 10.0 uM
[30] = target: 5-hydroxytryptamine receptor 3A (Homo sapiens) (UniProt P46098); details: Compound concentration 10.0 uM
D(3) dopamine receptor [31] = target: T2, D(3) dopamine receptor; details: Compound concentration 10.0 uM
[32] = target: Muscarinic acetylcholine receptor M5 (Homo sapiens) (UniProt P08912); details: Compound concentration 10.0 uM
[33] = target: 5-hydroxytryptamine receptor 5A (Homo sapiens) (UniProt P47898); details: Compound concentration 10.0 uM
[34] = target: 5-hydroxytryptamine receptor 1A (Homo sapiens, UniProt P08908); test: GPCRScan assay: inhibition of 5-HT1A; design: radioligand conc. used [nm] 0.5 – 1.0, parental cells stable CHO
[35] = target: 5-hydroxytryptamine receptor 2C (Homo sapiens) (UniProt P28335); details: Compound concentration 10.0 uM
[36] = target: Sodium-dependent noradrenaline transporter (Homo sapiens) (UniProt P23975); details: Compound concentration 10.0 uM
[37] = target: Casein kinase I isoform delta (Homo sapiens, UniProt P48730); test: BRET whole cell binding assay
[38] = target: Delta-type opioid receptor (Homo sapiens) (UniProt P41143); details: Compound concentration 10.0 uM
[39] = target: Beta-1 adrenergic receptor (Homo sapiens) (UniProt P08588); details: Compound concentration 10.0 uM
[40] = target: Sodium-dependent serotonin transporter (Homo sapiens) (UniProt P31645); details: Compound concentration 10.0 uM
[41] = target: Mu-type opioid receptor (Homo sapiens) (UniProt P35372); details: Compound concentration 10.0 uM
[42] = target: Alpha-1D adrenergic receptor (Homo sapiens) (UniProt P25100); details: Compound concentration 10.0 uM
[43] = target: 5-hydroxytryptamine receptor 2A (Homo sapiens) (UniProt P28223); details: Compound concentration 10.0 uM
[44] = target: Serine/threonine-protein kinase DCLK2 (Homo sapiens, UniProt Q8N568); test: DCAMKL2(h) Kinase panel
[45] = target: Casein kinase I isoform alpha (Homo sapiens, UniProt P48729); test: CK1alpha(h) Kinase panel
[46] = target: T3, Casein kinase I isoform epsilon (Homo sapiens, UniProt P49674); test: CK1epsilon(h) Kinase panel
[47] = target: T3, Casein kinase I isoform epsilon; test: ADP-Glo
[48] = target: Macrophage colony-stimulating factor 1 receptor (Homo sapiens, UniProt P07333); test: Fms(h) Kinase panel
[49] = GPCRScan assay: inhibition of GABA/PBR; design: species or system Rattus norvegicus; radioligand conc. used [nm] 0.3 – 2.0, parental cells brain tissue
[50] = target: Serine/threonine-protein kinase 38-like (Homo sapiens, UniProt Q9Y2H1); test: NDR2(h) Kinase panel
[51] = target: Mitogen-activated protein kinase 11 (Homo sapiens, UniProt Q15759); test: SAPK2b(h) Kinase panel
[52] = target: 5'-AMP-activated protein kinase catalytic subunit alpha-2 (Homo sapiens, UniProt P54646); test: AMPKalpha2(h) Kinase panel
[53] = target: Mitogen-activated protein kinase 14 (Homo sapiens, UniProt Q16539); test: SAPK2a(h) Kinase panel
[54] = target: TRAF2 and NCK-interacting protein kinase (Homo sapiens, UniProt Q9UKE5); test: TNIK(h) Kinase panel
TGF-beta receptor type-1 = TGF-beta receptor type-1 (Homo sapiens, UniProt P36897); test: TGFBR1(h) Kinase panel

T1 sequence (Q01959 whole entry): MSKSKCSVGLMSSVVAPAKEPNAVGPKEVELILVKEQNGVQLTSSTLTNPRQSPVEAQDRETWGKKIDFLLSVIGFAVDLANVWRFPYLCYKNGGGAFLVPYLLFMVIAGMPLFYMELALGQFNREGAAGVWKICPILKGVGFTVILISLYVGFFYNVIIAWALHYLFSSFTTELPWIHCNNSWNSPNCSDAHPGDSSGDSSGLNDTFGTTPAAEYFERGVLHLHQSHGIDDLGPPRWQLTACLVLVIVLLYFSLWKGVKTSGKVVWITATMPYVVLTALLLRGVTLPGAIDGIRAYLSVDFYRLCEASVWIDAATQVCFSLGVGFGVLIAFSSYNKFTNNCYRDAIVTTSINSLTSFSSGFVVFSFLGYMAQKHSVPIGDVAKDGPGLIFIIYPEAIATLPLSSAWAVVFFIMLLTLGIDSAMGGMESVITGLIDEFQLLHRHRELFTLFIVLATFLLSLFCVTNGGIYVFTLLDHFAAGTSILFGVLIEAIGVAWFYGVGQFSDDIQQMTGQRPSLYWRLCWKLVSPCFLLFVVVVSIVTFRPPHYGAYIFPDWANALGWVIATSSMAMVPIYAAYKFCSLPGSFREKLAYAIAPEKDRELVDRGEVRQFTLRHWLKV
T2 sequence (P35462 whole entry): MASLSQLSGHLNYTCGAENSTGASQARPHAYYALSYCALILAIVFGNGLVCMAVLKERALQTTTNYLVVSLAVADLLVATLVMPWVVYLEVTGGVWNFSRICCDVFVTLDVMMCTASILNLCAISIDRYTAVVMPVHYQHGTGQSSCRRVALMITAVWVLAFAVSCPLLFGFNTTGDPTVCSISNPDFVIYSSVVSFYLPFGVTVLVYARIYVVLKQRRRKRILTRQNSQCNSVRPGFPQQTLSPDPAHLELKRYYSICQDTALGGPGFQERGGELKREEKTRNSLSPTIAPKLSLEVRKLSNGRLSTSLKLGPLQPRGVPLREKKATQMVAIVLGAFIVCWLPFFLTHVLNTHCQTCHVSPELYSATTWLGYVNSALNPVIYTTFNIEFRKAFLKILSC
T3 sequence (P49674 whole entry, canonical isoform): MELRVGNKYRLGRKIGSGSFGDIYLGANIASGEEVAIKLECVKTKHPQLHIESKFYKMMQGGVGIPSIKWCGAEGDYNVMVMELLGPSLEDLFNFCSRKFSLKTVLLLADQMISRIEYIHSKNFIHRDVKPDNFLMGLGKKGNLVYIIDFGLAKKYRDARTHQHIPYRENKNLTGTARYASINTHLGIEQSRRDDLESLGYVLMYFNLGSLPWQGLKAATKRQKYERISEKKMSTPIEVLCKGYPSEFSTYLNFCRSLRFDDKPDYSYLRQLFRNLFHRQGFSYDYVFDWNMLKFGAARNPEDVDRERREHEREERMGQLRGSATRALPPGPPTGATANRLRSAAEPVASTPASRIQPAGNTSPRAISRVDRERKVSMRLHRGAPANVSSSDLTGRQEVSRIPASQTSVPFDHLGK
Chain of Serine/threonine-protein kinase DCLK2 (Q8N568 whole entry, canonical isoform): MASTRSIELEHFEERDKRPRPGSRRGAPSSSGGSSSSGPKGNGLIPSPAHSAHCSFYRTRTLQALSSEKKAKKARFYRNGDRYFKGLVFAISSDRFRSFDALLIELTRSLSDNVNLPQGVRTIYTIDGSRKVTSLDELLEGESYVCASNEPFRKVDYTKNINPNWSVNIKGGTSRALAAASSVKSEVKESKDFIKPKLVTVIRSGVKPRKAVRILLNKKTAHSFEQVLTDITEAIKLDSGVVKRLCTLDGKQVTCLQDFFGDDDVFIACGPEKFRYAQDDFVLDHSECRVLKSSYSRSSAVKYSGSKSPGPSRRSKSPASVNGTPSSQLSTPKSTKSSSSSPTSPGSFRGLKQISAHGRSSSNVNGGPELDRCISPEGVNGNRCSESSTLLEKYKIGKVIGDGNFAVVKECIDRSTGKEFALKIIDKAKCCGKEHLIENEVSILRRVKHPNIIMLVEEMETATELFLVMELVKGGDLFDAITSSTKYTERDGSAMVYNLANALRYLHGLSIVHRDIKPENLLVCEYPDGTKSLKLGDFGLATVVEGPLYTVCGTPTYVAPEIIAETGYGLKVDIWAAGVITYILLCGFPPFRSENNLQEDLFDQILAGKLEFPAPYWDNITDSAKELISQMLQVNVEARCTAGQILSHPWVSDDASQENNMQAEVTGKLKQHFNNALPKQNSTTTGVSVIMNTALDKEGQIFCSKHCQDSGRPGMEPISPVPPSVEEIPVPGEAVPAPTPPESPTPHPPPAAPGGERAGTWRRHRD
Chain of Sodium-dependent noradrenaline transporter (Homo sapiens) (P23975 whole entry, canonical isoform): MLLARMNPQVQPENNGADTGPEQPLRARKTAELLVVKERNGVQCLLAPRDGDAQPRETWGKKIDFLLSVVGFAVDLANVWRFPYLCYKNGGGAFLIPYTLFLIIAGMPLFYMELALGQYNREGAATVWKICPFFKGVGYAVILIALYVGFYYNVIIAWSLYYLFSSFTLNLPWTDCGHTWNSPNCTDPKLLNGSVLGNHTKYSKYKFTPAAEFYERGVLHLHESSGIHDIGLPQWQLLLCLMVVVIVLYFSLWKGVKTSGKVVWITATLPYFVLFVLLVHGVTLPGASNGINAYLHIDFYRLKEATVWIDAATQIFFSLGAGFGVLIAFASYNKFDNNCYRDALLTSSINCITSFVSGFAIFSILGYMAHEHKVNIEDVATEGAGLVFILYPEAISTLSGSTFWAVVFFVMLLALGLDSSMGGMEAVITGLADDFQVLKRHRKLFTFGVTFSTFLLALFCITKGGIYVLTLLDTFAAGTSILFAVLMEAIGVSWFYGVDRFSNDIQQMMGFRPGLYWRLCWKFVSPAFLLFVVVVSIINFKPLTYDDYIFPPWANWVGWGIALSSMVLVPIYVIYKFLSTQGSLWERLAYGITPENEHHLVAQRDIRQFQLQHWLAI
Chain of Histamine H4 receptor (Homo sapiens) (Q9H3N8 whole entry): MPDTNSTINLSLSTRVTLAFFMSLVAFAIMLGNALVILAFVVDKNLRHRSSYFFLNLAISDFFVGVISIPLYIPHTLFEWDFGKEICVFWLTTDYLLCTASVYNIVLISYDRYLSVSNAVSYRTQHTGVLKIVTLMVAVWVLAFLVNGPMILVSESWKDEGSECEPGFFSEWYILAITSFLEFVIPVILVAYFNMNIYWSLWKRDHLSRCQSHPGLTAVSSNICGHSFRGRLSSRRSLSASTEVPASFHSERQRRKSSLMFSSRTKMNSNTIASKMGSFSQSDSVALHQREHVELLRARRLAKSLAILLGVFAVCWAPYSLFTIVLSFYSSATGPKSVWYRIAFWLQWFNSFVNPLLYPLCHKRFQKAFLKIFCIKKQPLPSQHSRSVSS
Chain of Sigma non-opioid intracellular receptor 1 (Homo sapiens) (Q99720 whole entry): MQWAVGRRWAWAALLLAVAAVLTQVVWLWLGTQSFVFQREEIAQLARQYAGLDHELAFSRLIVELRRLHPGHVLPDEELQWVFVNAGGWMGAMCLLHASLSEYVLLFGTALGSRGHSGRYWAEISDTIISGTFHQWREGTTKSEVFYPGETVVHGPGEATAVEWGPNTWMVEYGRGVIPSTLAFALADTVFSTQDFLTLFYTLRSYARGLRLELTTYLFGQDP
Chain of Casein kinase I isoform delta (P48730 whole entry, canonical isoform): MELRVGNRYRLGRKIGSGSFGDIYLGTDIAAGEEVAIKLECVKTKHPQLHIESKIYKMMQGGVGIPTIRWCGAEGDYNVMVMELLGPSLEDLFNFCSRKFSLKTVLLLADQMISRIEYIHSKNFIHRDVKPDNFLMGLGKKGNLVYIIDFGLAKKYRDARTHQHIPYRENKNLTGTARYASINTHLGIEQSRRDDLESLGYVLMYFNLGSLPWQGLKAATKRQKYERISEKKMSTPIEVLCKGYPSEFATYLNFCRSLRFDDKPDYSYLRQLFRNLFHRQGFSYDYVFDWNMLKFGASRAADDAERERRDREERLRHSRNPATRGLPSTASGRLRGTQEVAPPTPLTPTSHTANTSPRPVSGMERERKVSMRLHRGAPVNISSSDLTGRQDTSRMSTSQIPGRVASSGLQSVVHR
Chain of Serine/threonine-protein kinase 38-like (Q9Y2H1 whole entry): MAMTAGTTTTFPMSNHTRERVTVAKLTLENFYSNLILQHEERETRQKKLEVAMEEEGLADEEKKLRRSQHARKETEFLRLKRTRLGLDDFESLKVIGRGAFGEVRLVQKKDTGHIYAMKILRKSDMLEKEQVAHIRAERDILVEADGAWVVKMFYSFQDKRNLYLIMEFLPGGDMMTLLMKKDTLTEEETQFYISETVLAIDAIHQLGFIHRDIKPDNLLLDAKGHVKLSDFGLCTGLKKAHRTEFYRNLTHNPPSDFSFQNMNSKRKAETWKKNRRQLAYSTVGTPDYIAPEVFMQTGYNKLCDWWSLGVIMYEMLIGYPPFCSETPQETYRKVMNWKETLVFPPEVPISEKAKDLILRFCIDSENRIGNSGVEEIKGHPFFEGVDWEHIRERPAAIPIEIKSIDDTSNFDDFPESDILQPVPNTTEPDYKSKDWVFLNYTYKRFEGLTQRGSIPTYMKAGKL
Chain of Muscarinic acetylcholine receptor M3 (Homo sapiens) (P20309 whole entry, looked up): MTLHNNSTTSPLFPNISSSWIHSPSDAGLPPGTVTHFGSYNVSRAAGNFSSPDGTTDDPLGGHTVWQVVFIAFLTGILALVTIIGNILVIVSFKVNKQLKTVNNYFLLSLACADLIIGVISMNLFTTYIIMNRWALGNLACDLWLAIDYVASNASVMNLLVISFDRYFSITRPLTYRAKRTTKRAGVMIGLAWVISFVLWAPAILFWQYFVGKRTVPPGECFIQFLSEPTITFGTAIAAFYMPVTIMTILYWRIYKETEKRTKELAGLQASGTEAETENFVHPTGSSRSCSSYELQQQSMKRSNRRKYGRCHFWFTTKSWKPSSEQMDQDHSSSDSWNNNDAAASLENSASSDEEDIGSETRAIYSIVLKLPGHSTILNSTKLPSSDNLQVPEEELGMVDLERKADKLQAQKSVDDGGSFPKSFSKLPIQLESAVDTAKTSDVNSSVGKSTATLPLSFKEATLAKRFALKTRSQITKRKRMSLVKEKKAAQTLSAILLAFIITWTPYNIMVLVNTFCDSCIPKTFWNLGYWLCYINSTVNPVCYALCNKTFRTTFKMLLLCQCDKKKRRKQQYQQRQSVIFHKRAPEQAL

Work on Cn1cc2c(-c3c(-c4ccc(F)cn4)nn4c3COC(C)(C)C4)ccnc2n1 yielded an inhibition [1] of 16.9%, an inhibition [2] of 48.1% and an inhibition [3] of 3.57%. For the same compound, the inhibition [4] was -2.71%, the inhibition [5] was 11.3% and the inhibition [6] was 2.11%. The inhibition [7] was 5.63%, the inhibition [8] was 9.43% and the inhibition [9] was -7.88%. The inhibition [10] was 12.5%, the inhibition [11] was -2.3% and the Ki ([12]; read-out: Ki) was 7.22 µM. The Ki ([12]; read-out: pKi (converted)) was 7.24 µM, the inhibition [13] was 0.71% and the inhibition [14] was 5.15%. For the same compound, the inhibition [15] was 9.41%, the inhibition [16] was 31.6% and the inhibition [17] was -5.28%. For the same compound, the inhibition [18] was 14.2%, the inhibition [19] was 19.6% and the inhibition [20] was 35.2%. For the same compound, the inhibition [21] was 12.3%, the inhibition [22] was 3.69% and the inhibition [23] was 72.5%. For the same compound, the Ki (D(3) dopamine receptor [24]) was 8.63 µM, the inhibition [25] was 11% and the inhibition [26] was 0.72%. It also gave an inhibition [27] of -5.08%, an inhibition [28] of 13% and an inhibition [29] of 18.2%. It also gave an inhibition [30] of 1.67%, an inhibition (D(3) dopamine receptor [31]) of 71% and an inhibition [32] of 12.5%. The inhibition [33] was 5.31%, the Ki [34] was 7.66 µM and the inhibition [35] was 2.17%. The inhibition [36] was 3.24%, the IC50 [37] was > 10 µM (not active) and the inhibition [38] was -4.05%. The inhibition [39] was 14.9%, the inhibition [40] was -2.06% and the inhibition [41] was -0.34%. The inhibition [42] was 12.7% and the inhibition [43] was 0.96%.

Compound [2H]C([2H])([2H])C1(C([2H])([2H])[2H])Cn2nc(-c3ccc(F)cn3)c(-c3ccnc4[nH]ncc34)c2CO1 has an IC50 [44] of over 10 µM, an IC50 [45] of 0.419 µM and an IC50 [46] of 0.137 µM. The IC50 [47] was 0.137 µM (active), the IC50 [48] was over 10 µM and the Ki [49] was 4.53 µM. It also gave a pKi [49] of 5.34, an IC50 [50] of over 10 µM and an IC50 [51] of over 10 µM. For the same compound, the IC50 [52] was over 10 µM, the IC50 [53] was over 10 µM and the IC50 [54] was 1.7 µM. For the same compound, the IC50 (TGF-beta receptor type-1) was over 10 µM.
